The record followed here is patent US20130266605A1, “PEPTIDE INHIBITORS OF CD40L SIGNALING AND USES THEREFOR” (PHYLOGICA LIMITED, priority 2010, published 2013).

Experiment [1] addresses CD40L-induced CD86 expression on primary B-cells (UniProt P29965). Put plainly: Inhibition of CD40L-induced CD86 expression on primary B-cells (FACS). Particulars: for inhibition of CD40L-induced CD86 expression on primary B-cells: in words.
Description: In one example, the ability of a peptide, analog or derivative of the invention to inhibit or reduce or delay expression of CD86 on primary B-cells was determined in the presence and absence of the peptides, analogs and derivatives of the invention. In particular, CD86 expression was determined by FACS.
As a control in these assays, LPS-induced expression of CD86 mediated by the Toll-like receptors TLR 2/4, and TNFα-induced cytoxicity, were also assayed to exclude effects mediated by ligands other than CD40L.
The target of another experiment is T1, CD40L-CD40 interaction (Homo sapiens, UniProt P29965).
T1 sequence (P29965 113-261 limits assumed): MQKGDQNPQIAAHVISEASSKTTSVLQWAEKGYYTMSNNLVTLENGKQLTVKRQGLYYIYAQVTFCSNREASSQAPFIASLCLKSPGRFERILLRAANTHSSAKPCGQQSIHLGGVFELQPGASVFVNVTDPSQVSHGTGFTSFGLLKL
Put plainly: Chemiluminescent proximity assay (Alphascreen). The note with it: for inhibition of the interaction between CD40L and CD40: in words, Alphascreen proximity assay; for EC50: PEGylated chiral (retro-inverted) analog, read-out: EC50(PEGylated) CD40L/CD40-Fc/BAF617. The format is binding. As for the experimental part:
In one example, the Alphascreen assay (PerkinElmer) was employed according to the manufacturer's instructions.
Homodimers and heterodimers were also assayed by chemiluminescent proximity assay for their ability to inhibit CD40L-CD40 interaction.
On the technique in general: Alpha assays give light when donor and acceptor beads are brought close together.

Another experiment has as its target T2, CD40L (Homo sapiens, UniProt P29965).
T2 sequence (P29965 113-261 limits assumed): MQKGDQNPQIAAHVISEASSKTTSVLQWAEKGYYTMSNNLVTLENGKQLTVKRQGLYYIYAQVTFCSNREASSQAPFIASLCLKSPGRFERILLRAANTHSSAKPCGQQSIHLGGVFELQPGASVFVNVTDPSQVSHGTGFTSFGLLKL
The experiment is described as follows: Octet Red label-free association/dissociation analysis. In kind it is binding. As for the experimental part:
Label-free analyses of the associations and dissociations of base peptides and serine derivatives of base peptides with the CD40L target protein were performed using the Octet Red system (ForteBio, Inc., USA) according to the manufacturer's instructions. These analyses provide kinetic constants of CD40L binding activity, especially the association rate constant (Ka) and dissociation rate constant ([…]) of binding, i.e., measures of the “on” and “off” rates of the peptides relative to soluble CD40L.
(In general: BLI is a label-free optical method that tracks binding on a fibre tip over time.)

Setting [2] is: read-out: EC50 PEGylated peptide, PEGylated monomeric peptide.
Where [3] appears, read: Cys-Ser derivative peptides, read-out: KD value.

A word on the Kd: it is the concentration at which binding is half-saturated.

Read-outs that look alike come from different tables or passages of the source. Positions of bridges follow the written chain, without caps; N, C: chain ends. Non-standard residues stand in square brackets, D forms with d. Residues, ends and D or L forms follow the SMILES beside them. Chains are numbered I, II in the order given. No end group written: not given here. AEEA = NCCOCCOCC(=O)O

Chain of CD40L-induced CD86 expression on primary B-cells (P29965 whole entry): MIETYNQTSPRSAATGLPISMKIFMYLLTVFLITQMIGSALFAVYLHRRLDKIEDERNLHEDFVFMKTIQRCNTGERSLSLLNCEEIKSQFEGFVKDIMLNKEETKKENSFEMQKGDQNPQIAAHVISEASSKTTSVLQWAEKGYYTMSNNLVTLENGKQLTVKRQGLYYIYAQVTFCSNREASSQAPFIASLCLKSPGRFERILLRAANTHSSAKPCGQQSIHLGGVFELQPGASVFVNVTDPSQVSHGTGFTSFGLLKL
Chain of CD40L-induced CD86 expression on primary B-cells (P25942 21-277 partner): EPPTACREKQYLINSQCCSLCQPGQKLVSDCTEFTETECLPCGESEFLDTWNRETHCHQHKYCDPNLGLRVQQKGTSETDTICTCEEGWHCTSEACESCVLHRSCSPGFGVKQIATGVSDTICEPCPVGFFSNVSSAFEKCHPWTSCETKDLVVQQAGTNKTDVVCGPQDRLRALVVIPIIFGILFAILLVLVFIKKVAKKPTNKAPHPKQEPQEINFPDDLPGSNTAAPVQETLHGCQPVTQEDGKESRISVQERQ

As for `CC[C@H](C)[C@H](NC(=O)[C@H](CO)NC(=O)[C@H](Cc1ccccc1)NC(=O)[C@@H](NC(=O)[C@H](CC(N)=O)NC(=O)[C@H](CCCCN)NC(=O)[C@@H](NC(=O)[C@H](CO)NC(=O)[C@H](Cc1ccccc1)NC(=O)[C@@H]1CCCN1C(=O)[C@H](Cc1c[nH]cn1)NC(=O)COCCOCCNC(=O)[C@@H](N)CSSC[C@H](N)C(=O)NCCOCCOCC(=O)N[C@@H](Cc1c[nH]cn1)C(=O)N1CCC[C@H]1C(=O)N[C@@H](Cc1ccccc1)C(=O)N[C@@H](CO)C(=O)N[C@H](C(=O)N[C@@H](CCCCN)C(=O)N[C@@H](CC(N)=O)C(=O)N[C@H](C(=O)N[C@@H](Cc1ccccc1)C(=O)N[C@@H](CO)C(=O)N[C@H](C(=O)N[C@@H](Cc1c[nH]c2ccccc12)C(=O)N[C@@H](CC(N)=O)C(=O)N[C@@H](Cc1ccccc1)C(=O)N[C@@H](Cc1ccccc1)C(=O)N[C@@H](CO)C(=O)N[C@H](C(=O)N[C@@H](Cc1ccc(O)cc1)C(=O)O)C(C)C)[C@@H](C)CC)C(C)C)[C@@H](C)CC)[C@@H](C)CC)C(C)C)C(=O)N[C@@H](Cc1c[nH]c2ccccc12)C(=O)N[C@@H](CC(N)=O)C(=O)N[C@@H](Cc1ccccc1)C(=O)N[C@@H](Cc1ccccc1)C(=O)N[C@@H](CO)C(=O)N[C@H](C(=O)N[C@@H](Cc1ccc(O)cc1)C(=O)O)C(C)C` [Cys_M1_6S homodimer] (I: H-C[AEEA]HPFSIKNVFSIWNFFSVY-OH / II: H-C[AEEA]HPFSIKNVFSIWNFFSVY-OH; disulfide I:1-II:1; C-terminus assumed), the “inhibition of CD40L-induced CD86 expression on primary B-cells” value (“inhibition … on primary B-cells” for short) in experiment [1] is “enhanced inhibition”. For the same molecule, the “inhibition of the interaction between CD40L and CD40” value against CD40L-CD40 interaction (listed as 6-6 dimer) is reported as “enhanced inhibition”; against CD40L-CD40 interaction (listed as homodimer of the Phylomer peptide M1—6) it was “inhibition”.

On to “PFTWRPTIFWIIQLIVYMRHFGGGGSRSELLRENICRYVSLFDHPLQRNTPLDELRFVIFDTETSGFDLVKDRILSIR [CD40L D1_0014]”, for which binding on CD40L was characterised by a dissociation constant (Kd) of 48 nM. Also, the “higher affinity for CD40L than the base monomeric peptide” value on CD40L (heterodimer versus N-terminal monomer, from Table 2 data) is on record as 6 fold.

Take FHRMYVILQIIWFITPRWTFP [CD40L M7_206rd]: the EC50 in experiment [1] (setting [2]) was determined as 2000 nM; at CD40L-CD40 interaction, 12 nM.

On to “I: H-C[AEEA]PPRYNLFFLFRFYSSFRRDYLYF / II: H-C[AEEA]HPFSIKNVFSIWNFFSVY (disulfide I:1-II:1) [Cys_M1_6S-Cys_M1_9S heterodimer]”, for which the “inhibition … on primary B-cells” value in experiment [1] is “enhanced inhibition”. Moreover, the “inhibition of the interaction between CD40L and CD40” value is “enhanced inhibition” against CD40L-CD40 interaction (listed as 6-9 dimer) and “inhibition” against CD40L-CD40 interaction (listed as 6-9 high purity dimer).

As for `CC[C@H](C)[C@H](NC(=O)[C@H](CC(N)=O)NC(=O)[C@H](Cc1ccccc1)NC(=O)[C@@H]1CCCN1C(=O)[C@@H](NC(=O)[C@H](CC(N)=O)NC(=O)[C@@H](NC(=O)CNC(=O)[C@H](Cc1ccccc1)NC(=O)[C@H](CC(C)C)NC(=O)[C@@H](NC(=O)[C@H](Cc1ccccc1)NC(=O)[C@H](CO)NC(=O)[C@@H](N)Cc1c[nH]cn1)C(C)C)C(C)C)C(C)C)C(=O)N[C@H](C(=O)N[C@@H](CC(=O)O)C(=O)N[C@@H](Cc1ccccc1)C(=O)N[C@@H](CCC(N)=O)C(=O)N[C@@H](CCSC)C(=O)N[C@@H](CCCNC(=N)N)C(=O)N[C@H](C(=O)N[C@@H](CCCCN)C(=O)N[C@@H](CO)C(=O)O)C(C)C)[C@@H](C)CC` [CD40L M1_42s] (H-HSFVLFGVNVPFNIIDFQMRVKS-OH), the dissociation constant (Kd) on CD40L (setting [3]) was found to be 100 nM.

As for “I: H-C[AEEA]LLLFFFSPPFSIFSFSLTTLS / II: H-C[AEEA]HPFSIKNVFSIWNFFSVY (disulfide I:1-II:1) [Cys_M1_6S-Cys_M1_189S heterodimer]”, the “inhibition … on primary B-cells” value in experiment [1] was “enhanced inhibition”. For the same molecule, the “inhibition of the interaction between CD40L and CD40” value is “enhanced inhibition” on CD40L-CD40 interaction (listed as 6-189 dimer) and “inhibition” at CD40L-CD40 interaction (listed as 6-189 high purity dimer).

With “LDLFGDFNGLPEGADRTEFYQHEGHWQNRMILGDSLQVMASLAEREGLRGKVQCIYFDPPYGIKFN [CD40L M9_763]”, the Kd on CD40L (base peptides, equilibrium dissociation constant, read-out: KD) was determined as 27 nM.

For `CC[C@H](C)[C@H](NC(=O)[C@H](CO)NC(=O)[C@H](Cc1c[nH]c2ccccc12)NC(=O)[C@H](CCC(N)=O)NC(=O)[C@@H](NC(=O)[C@@H]1CCCN1C(=O)[C@H](Cc1ccccc1)NC(=O)[C@H](Cc1ccccc1)NC(=O)[C@H](Cc1c[nH]c2ccccc12)NC(=O)CNC(=O)[C@H](Cc1ccc(O)cc1)NC(=O)[C@H](CCCCN)NC(=O)[C@H](CC(C)C)NC(=O)[C@@H](NC(=O)[C@H](Cc1c[nH]cn1)NC(=O)[C@H](CO)NC(=O)[C@H](CCCNC(=N)N)NC(=O)[C@H](Cc1ccc(O)cc1)NC(=O)[C@@H]1CCCN1C(=O)[C@@H](NC(=O)[C@H](Cc1ccccc1)NC(=O)[C@@H]1CCCN1C(=O)[C@@H](N)CC(C)C)C(C)C)C(C)C)C(C)C)C(=O)N[C@@H](Cc1ccccc1)C(=O)N[C@@H](C)C(=O)N[C@H](C(=O)N[C@@H](CC(C)C)C(=O)N1CCC[C@H]1C(=O)N[C@@H](Cc1ccccc1)C(=O)N[C@@H](CCC(N)=O)C(=O)N[C@@H](Cc1ccc(O)cc1)C(=O)N[C@@H](CC(C)C)C(=O)N[C@@H](Cc1c[nH]cn1)C(=O)N[C@@H](CCCNC(=N)N)C(=O)N[C@@H](CS)C(=O)N[C@@H](CCCNC(=N)N)C(=O)O)C(C)C` [CD40L M1_18] (H-LPFVPYRSHVLKYGWFFPVQWSIFAVLPFQYLHRCR-OH; N-terminus and C-terminus assumed), the “inhibition … on primary B-cells” value in experiment [1] is listed as “concentration-dependent inhibition”.

Regarding `CC[C@H](C)[C@H](NC(=O)[C@H](C)NC(=O)[C@@H](NC(=O)[C@H](CCSC)NC(=O)[C@H](CCC(=O)O)NC(=O)[C@H](CO)NC(=O)[C@@H](N)CC(C)C)[C@@H](C)CC)C(=O)N[C@@H](Cc1ccc(O)cc1)C(=O)N[C@H](C(=O)N[C@@H](Cc1ccccc1)C(=O)N[C@@H](CC(C)C)C(=O)N[C@@H](Cc1c[nH]c2ccccc12)C(=O)N[C@@H](CCCCN)C(=O)N[C@@H](CCCCN)C(=O)N[C@H](C(=O)N[C@@H](Cc1ccccc1)C(=O)N[C@@H](CC(C)C)C(=O)O)C(C)C)C(C)C` [CD40L M7_217s] (H-LSEMIAIYVFLWKKVFL-OH; N-terminus and C-terminus assumed), the Kd at CD40L (setting [3]) was 100 nM.

Consider “VHSYYVWILQFYYKFRSYRWHYQIS [CD40L M1_82rd]”, for which the EC50 in experiment [1] (setting [2]) came out at 470 nM; on CD40L-CD40 interaction, 10 nM.

As for `CC(C)C[C@H](NC(=O)[C@H](Cc1ccc(O)cc1)NC(=O)[C@H](CC(=O)O)NC(=O)[C@H](CCCNC(=N)N)NC(=O)[C@H](CCCNC(=N)N)NC(=O)[C@H](Cc1ccccc1)NC(=O)[C@H](CO)NC(=O)[C@H](CO)NC(=O)[C@H](Cc1ccc(O)cc1)NC(=O)[C@H](Cc1ccccc1)NC(=O)[C@H](CCCNC(=N)N)NC(=O)[C@H](Cc1ccccc1)NC(=O)[C@H](CC(C)C)NC(=O)[C@H](Cc1ccccc1)NC(=O)[C@H](Cc1ccccc1)NC(=O)[C@H](CC(C)C)NC(=O)[C@H](CC(N)=O)NC(=O)[C@H](Cc1ccc(O)cc1)NC(=O)[C@H](CCCNC(=N)N)NC(=O)[C@@H]1CCCN1C(=O)[C@@H]1CCCN1)C(=O)N[C@@H](Cc1ccc(O)cc1)C(=O)N[C@@H](Cc1ccccc1)C(=O)O` [CD40L M1_9s] (H-PPRYNLFFLFRFYSSFRRDYLYF-OH), the Kd on CD40L (setting [3]) is 300 nM.

B1: CD40L: CD40 ligand used to induce CD86 expression on primary B-cells (protein)
chain: ENSFEMQKGDQNPQIAAHVISEASSKTTSVLQWAEKGYYTMSNNLVTLENGKQLTVKRQGLYYIYAQVTFCSNREASSQAPFIASLCLKSPGRFERILLRAANTHSSAKPCGQQSIHLGGVFELQPGASVFVNVTDPSQVSHGTGFTSFGLLKL
Consider B1, for which, in experiment [1] (read-out: EC50 value of CD40L induction of CD86 expression, absence of a peptidyl inhibitor), the EC50 is approximately 9 nM.
